Data: publication PMC3144732, “Rho-Rho kinase pathway in the actomyosin contraction and cell-matrix adhesion in immortalized human trabecular meshwork cells” (Molecular Vision, 2011)
pIC50: −log10 of the molar value. Entries after “also recorded” stand apart in the source; their conditions may differ.

What was measured:
[1] = test system: GTM3 cells (actomyosin contraction); assay: Collagen gel contraction assay with GTM3 cells; assay type: cell-based, human; settings: for increase in the gel area (relaxation) compared with the control: 10 μM
Method: A collagen gel contraction assay was performed as previously described. The wells of 24-well culture plates were coated with 1% BSA at 37 °C for 1 h. Glaucomatous trabecular meshwork cells were trypsinized and resuspended in culture medium at a density of 1×10^7 cells/ml. Rat-tail collagen Type I (BD Biosciences, San Jose, CA), 10× DMEM (Sigma, St. Louis, MO), reconstitution buffer (pH 7.3), TM cell suspension, and distilled water were mixed on ice to obtain a final concentration of 1.9 mg/ml of collagen and a final cell density of 2×10^5 cells/ml. The resultant mixture (0.5 ml) was added to each well of the BSA-coated culture clusters, and collagen gel formation was induced by incubation at 37 °C for 90 min. Serum-rich or serum-free DMEM (0.5 ml), without or with the drugs, was then added on top of the gels. After 1 h, the gels were freed from the walls of the culture wells. They were subsequently imaged every 24 h for 2 days. The area was calculated using NIH ImageJ software.

[2] = test system: normal HTM cells; settings: 10 μM; cited from earlier work
[3] = test system: MYPT1 phosphorylation at Thr853; assay: Western blot of MYPT1 phosphorylation at Thr853 in GTM3 cells; assay type: cell-based, human; settings: 1 h, serum-rich medium; for effect on MYPT1 phosphorylation at Thr853: 5 μM; for pIC50: GTM3 cells, densitometry of western blot, read-out: IC50 for dephosphorylation of MYPT1 at Thr853
Method: (§1) Cell cultures of an immortalized human glaucomatous trabecular meshwork (GTM3) cell line were grown at 37 °C in 5% CO2 in Dulbecco’s Minimum Essential Medium (DMEM + Glutamax) supplemented with 10% fetal bovine serum and 10 μg/ml of gentamicin (Invitrogen, Grand Island, NY) as previously described. Upon reaching confluence, cells were divided using 0.05% trypsin. Cells of passages 13 to 20 were used in our experiments.
(§2) Following treatment with the desired drugs/agents, cells were rinsed in PBS and solubilized in 300 µl of 2× Laemmli sample buffer. The lysate was sonicated briefly and boiled for 5 min. Equal amounts of protein (30 μg) were loaded in 8% or 12% SDS–PAGE gels. Following electrophoresis, proteins were transferred to a nitrocellulose membrane (Biorad, Hercules, CA), blocked with 5% fat-free milk for 1 h, and incubated with specific phospho-MYPT1 or phospho-MLC antibodies overnight. The membranes were next incubated with the appropriate secondary antibodies for 1 h. The blots were finally washed and developed using an enhanced chemiluminescence kit (Pierce, Rockford, IL) according to the manufacturer’s instructions.
(§3) A one-way ANOVA was used to compare mean values for different treatments with Bonferroni’s post-test analysis (Prism 5.0 for Windows; GraphPad Software, Inc., San Diego, CA). Results are expressed as mean±SEM. For analysis of ECIS (electrical cell-substrate impedance sensing) data, normalized numerical values from individual experiments were pooled and expressed as mean±SEM. A p value of less than 0.05 was considered statistically significant. “n” denotes the number of independent experiments performed. […] The calculations assume that log [drug] versus response follow a sigmoidal shape and were performed with Prism 5.0. The reported values of R indicate goodness of fit.

[4] = test system: MLC phosphorylation; assay: Western blot of MLC phosphorylation (ppMLC) in GTM3 cells; assay type: cell-based, human; settings: 1 h, serum-rich medium, densitometry of western blot, read-out: IC50 for dephosphorylation of MLC
Method: as §1
Following treatment with the desired drugs/agents, cells were rinsed in PBS and solubilized in 300 µl of 2× Laemmli sample buffer. The lysate was sonicated briefly and boiled for 5 min. Equal amounts of protein (30 μg) were loaded in 8% or 12% SDS–PAGE gels. Following electrophoresis, proteins were transferred to a nitrocellulose membrane (Biorad, Hercules, CA), blocked with 5% fat-free milk for 1 h, and incubated with specific phospho-MYPT1 or phospho-MLC antibodies overnight. The membranes were next incubated with the appropriate secondary antibodies for 1 h. […]
A one-way ANOVA was used to compare mean values for different treatments with Bonferroni’s post-test analysis (Prism 5.0 for Windows; GraphPad Software, Inc., San Diego, CA). Results are expressed as mean±SEM. For analysis of ECIS (electrical cell-substrate impedance sensing) data, normalized numerical values from individual experiments were pooled and expressed as mean±SEM. […]

[5] = test system: GTM3 cells; assay: Cell morphology (DIC), stress fibers and focal adhesions (F-actin, paxillin staining); assay type: cell-based, human; settings: 1 h, serum-rich medium
Method: Cells were first treated for the indicated time period in the serum-rich medium described earlier. Following a brief rinse with PBS, cells were fixed with 4% paraformaldehyde for 10 min and then permeabilized with 0.1% Triton-X for 10 min. For phosphorylated MLC staining, cells were blocked with 10% goat serum + 3% BSA, and, for vinculin and paxillin staining, the cells were blocked with 10% FBS for 1 h. Cells were incubated in primary antibody overnight, followed by secondary antibody incubation for 1 h. Double staining for actin was performed by incubating cells in Texas-red conjugated phalloidin for 20 min. After extensive washing, coverslips were mounted using ProLong AntiFade (Molecular Probes, Eugene, OR). Images were acquired using a Leica SP5 (Leica Microsystems, Bannockburn, IL) confocal microscope. After similar treatments, DIC images of cells fixed on coverslips were also obtained using a Nikon E800 (Nikon Instruments, Melville, NY) microscope.

[6] = test system: GTM3 cells (cell-matrix adhesion); assay: Electrical cell-substrate impedance sensing (ECIS), cell-matrix adhesion; assay type: cell-based, human
Method: Cells were seeded on gold electrode-plated culture plates (8W10E+) and placed in an incubator at 37 °C with humidified air and 5% CO2. The attachment and spreading of the cells on electrodes was monitored continuously at 4 kHz until the observed electrical resistance reached a plateau and stabilized. This usually occurred within 20–24 h after inoculation. Impedance to current flow was measured at different frequencies (25 Hz to 60 kHz) periodically before and after inoculation. After reaching the steady-state of electric-cell substrate resistance, cells were exposed to the ROCK inhibitors, and the impedance was assessed at different frequencies every 30 min. The change in the measured resistance normalized to that of the bare electrode was taken as a measure of cell-matrix adhesion as discussed further below.
ECIS involves the measurement of impedance to a small AC current applied across cells grown to confluence on planar gold microelectrodes. The measurement is non-invasive, and off-the-shelf instruments such as ECIS^TM 1600R (Applied Biophysics, Inc., Troy, NY) make use of a lock-in amplifier to measure small changes in electrical impedance at a high-temporal resolution. We have previously employed ECIS to assess the integrity of the apical junctional complex of the corneal endothelial monolayers. For epithelial monolayers, such as the corneal endothelium, the resistive component of the measured impedance implies trans-endothelial electrical resistance for current flow between the cells when confluent on the electrode. However, with non-epithelial cells, such as fibroblasts, measured impedance arises mainly out of resistance to current flow across the cell substrate (i.e., cell-matrix adhesion). In this study, we examined the dynamics of such cell-matrix resistance (i.e., resistive component of the measured impedance) with TM cells. […] This increase can be attributed to the attachment of cells to the substrate (gold electrode), which leads to an increased resistance to current flow. […]

[7] = test system: MYPT1 phosphorylation at Thr696; assay: Western blot of MYPT1 phosphorylation at Thr696 in GTM3 cells; assay type: cell-based, human; settings: 1 h, serum-rich medium; for pIC50: GTM3 cells, densitometry of western blot, read-out: IC50 for dephosphorylation of MYPT1 at Thr696
Method: as §1, §2, §3

[8] = test system: paxillin (Tyr118) phosphorylation; assay: Serum-induced tyrosine phosphorylation of paxillin (Tyr118), western blot; assay type: cell-based, human; settings: 1 μM pretreatment, 10% serum added to serum-starved cells
[9] = rabbits; cited from earlier work
[10] = test system: FAK (Tyr397) phosphorylation; assay: Serum-induced tyrosine phosphorylation of FAK (Tyr397), western blot; assay type: cell-based, human; settings: 1 μM pretreatment, 10% serum added to serum-starved cells

For C[C@@H](N)[C@H]1CC[C@H](C(=O)Nc2ccncc2)CC1 [Y-27632], the “increase in the gel area (relaxation) compared with the control” value ([1]; 48 h, 10% serum) is given as 50%, the gel contraction allowed [2] is given as 30% and the “effect on MYPT1 phosphorylation at Thr853” value [3] is given as “complete dephosphorylation”. The pIC50 [3] was 6.18, the pIC50 [4] was 5.97 and the “change in cell shape (DIC images)” value ([5]; 5 μM) was “apparent shrinkage, with cells assuming a stellate appearance”. The “effect on stress fibers and focal adhesions” value ([5]; 5 μM) was “complete loss of stress fibers and focal adhesions”, the “change in electrical cell-substrate resistance” value ([6]; 5 μM, up to 2 h) was “significant decrease in the peak resistance” and the “effect on MYPT1 phosphorylation at Thr696” value ([7]; 5 μM) was “comparatively smaller reduction; also recorded: only slightly reduced; also recorded: only a marginal decrease”. For the same compound, the pIC50 [7] was 5.64.
For C[C@@H](N)c1ccc(C(=O)Nc2ccnc3[nH]ccc23)cc1 [Y-39983], the “increase in the gel area compared with the control” value ([1]; 1 μM, 48 h, 10% serum) was 86±5%, the “decrease in the contraction of the collagen gels” value ([1]; 5 μM) was 100% and the “effect on serum-induced phosphorylation of paxillin at Tyr118” value [8] was “opposed”. For the same compound, the “decrease in IOP compared to Y-27632” value [9] was 10 fold, the “effect on MYPT1 phosphorylation at Thr853” value [3] was “complete dephosphorylation” and the pIC50 [3] was 7.82. The pIC50 [4] was 7.85, the “change in cell shape (DIC images)” value ([5]; 1 μM) was “apparent shrinkage, with cells assuming a stellate appearance” and the “effect on stress fibers and focal adhesions” value ([5]; 1 μM) was “complete loss of stress fibers and focal adhesions”. For the same compound, the “effect on stress fibers and focal adhesions” value ([5]; 5 μM) was “loss of stress fibers”, the “effect on serum-induced tyrosine phosphorylation of FAK at Tyr397” value [10] was “opposed” and the “change in electrical cell-substrate resistance” value ([6]; 1 μM, up to 2 h) was “significant decrease in resistance; also recorded: rapid and more pronounced”. It also gave a pIC50 [7] of 6.75.
For Cc1ccc2c(c1)C(=O)C1(O)CCN(c3ccccc3)C1=N2 (stereo not shown) [blebbistatin], the “increase in the gel area (relaxation) compared with the control” value ([1]; 48 h, 10% serum) was 102±1.3%.
In the case of C=C1[C@@H](C)[C@H]2[C@H](Cc3ccccc3)NC(=O)[C@]23[C@H](OC(C)=O)/C=C/[C@@](C)(O)C(=O)[C@@H](C)C/C=C/[C@H]3[C@@H]1O [cytochalasin D], the “change in electrical cell-substrate resistance” value ([6]; 0.125 mg/ml) was “significant decrease in the measured resistance; also recorded: substantial decrease in the resistance”.
